Experimental data reported in ChEMBL document CHEMBL1201862, “PubChem BioAssay data set” (2004).
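Tested at 5 concentrations; 48 h exposure; 96-well plates; endpoints linearly interpolated, else capped at highest concentration. Abbreviation: GI50, concentration required for 50% inhibition of growth.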 Calls of active or inactive are those of the source. Cut-off read from the data, not from the text of the source: active = GI50 up to about 1.1 µM and inactive = higher.

How the values were obtained:
Experiment in all cases: NCI tumour cell line growth inhibition, 48 h
SF-295 = test system: SF-295
SK-MEL-28 = test system: SK-MEL-28
SK-MEL-2 = test system: SK-MEL-2
SNB-19 = test system: SNB-19
A549 = test system: A549
SF-539 = test system: SF-539
A498 = test system: A498
K562 = test system: K562
UO-31 = test system: UO-31
MOLT-4 = test system: MOLT-4
HT-29 = test system: HT-29
U-251 = test system: U-251
NCI-H460 = test system: NCI-H460
ACHN = test system: ACHN
HOP-92 = test system: HOP-92

Row | Compound | GI50 (SF-295) | GI50 (SK-MEL-28) | GI50 (SK-MEL-2) | GI50 (SNB-19) | GI50 (A549) | GI50 (SF-539) | GI50 (A498) | GI50 (K562) | GI50 (UO-31) | GI50 (MOLT-4) | GI50 (HT-29) | GI50 (U-251) | GI50 (NCI-H460) | GI50 (ACHN) | GI50 (HOP-92)
1 | CCOC(=O)c1cc(C(=O)O)c(=O)n2c1[nH]c1ccccc12 | > 100 µM (inactive) | 26.2 µM (inactive) | > 100 µM (inactive) | 44.3 µM (inactive) | 60.8 µM (inactive) | 36.4 µM (inactive) | > 100 µM (inactive) | > 100 µM (inactive) | 23.9 µM (inactive) | > 100 µM (inactive) | > 100 µM (inactive) | 83.4 µM (inactive) | 89.9 µM (inactive) | > 100 µM (inactive) | –
2 | O=C1OC(Cl)C(N=P(c2ccccc2)(c2ccccc2)c2ccccc2)=C1Cl (stereo unspecified) | > 100 µM (inactive) | > 100 µM (inactive) | > 100 µM (inactive) | > 100 µM (inactive) | > 100 µM (inactive) | 93.3 µM (inactive) | > 100 µM (inactive) | > 100 µM (inactive) | > 100 µM (inactive) | > 100 µM (inactive) | > 100 µM (inactive) | – | – | – | > 100 µM (inactive)
3 | O=C(O)C1=C(O)C(C(=O)O)C23CCCCCCCCCCC12C(C(=O)O)C(O)=C3C(=O)O (stereo unspecified) | > 100 µM (inactive) | > 100 µM (inactive) | > 100 µM (inactive) | > 100 µM (inactive) | > 100 µM (inactive) | > 100 µM (inactive) | – | > 100 µM (inactive) | > 100 µM (inactive) | > 100 µM (inactive) | > 100 µM (inactive) | > 100 µM (inactive) | > 100 µM (inactive) | > 100 µM (inactive) | > 100 µM (inactive)
4 | CC1(S)CC2C(CC1Sc1ccccc1)C2(C)C (stereo unspecified) | > 100 µM (inactive) | > 100 µM (inactive) | > 100 µM (inactive) | – | > 100 µM (inactive) | > 100 µM (inactive) | – | > 100 µM (inactive) | > 100 µM (inactive) | > 100 µM (inactive) | > 100 µM (inactive) | > 100 µM (inactive) | > 100 µM (inactive) | > 100 µM (inactive) | > 100 µM (inactive)
5 | Cc1cc(Br)cc(C)c1NC(=O)C(=O)CC(=O)c1sc(-n2nc(-c3ccccc3)cc2-c2ccccc2)nc1C | > 100 µM (inactive) | > 100 µM (inactive) | – | > 100 µM (inactive) | > 100 µM (inactive) | – | > 100 µM (inactive) | > 100 µM (inactive) | > 100 µM (inactive) | > 100 µM (inactive) | > 100 µM (inactive) | > 100 µM (inactive) | > 100 µM (inactive) | > 100 µM (inactive) | > 100 µM (inactive)
6 | Cc1cccc(NC(=O)C(=O)C(C2OC(=O)c3ccccc32)[N+](=O)[O-])c1C (stereo unspecified) | 14.9 µM (inactive) | 12.6 µM (inactive) | 5.06 µM (inactive) | 16.2 µM (inactive) | 18.3 µM (inactive) | 18.9 µM (inactive) | 15.7 µM (inactive) | 4.42 µM (inactive) | 9.53 µM (inactive) | 2.99 µM (inactive) | 16.7 µM (inactive) | 3.64 µM (inactive) | 6 µM (inactive) | 10.9 µM (inactive) | –
7 | Cc1ccc(/C=C/C(=O)C(C)C)cc1 | 38.3 µM (inactive) | > 100 µM (inactive) | 36.3 µM (inactive) | 84.7 µM (inactive) | > 100 µM (inactive) | – | > 100 µM (inactive) | 31.3 µM (inactive) | 54.1 µM (inactive) | 30.2 µM (inactive) | 37.3 µM (inactive) | 24.5 µM (inactive) | 44.7 µM (inactive) | 83.8 µM (inactive) | 41.8 µM (inactive)
8 | COC(=O)c1cccc2c3ccccc3c3ccccc3c12 | 26.6 µM (inactive) | 41.5 µM (inactive) | 24.8 µM (inactive) | 30.4 µM (inactive) | 44.5 µM (inactive) | – | 20.2 µM (inactive) | 29 µM (inactive) | 39.9 µM (inactive) | 24.5 µM (inactive) | 29.5 µM (inactive) | 26.1 µM (inactive) | – | 79.3 µM (inactive) | –
9 | CC(=O)Nc1ccc(/C=c2\sc3nnc(/C=C/c4ccccc4)n3c2=O)cc1 | > 50 µM (inactive) | > 50 µM (inactive) | > 50 µM (inactive) | > 50 µM (inactive) | > 50 µM (inactive) | > 50 µM (inactive) | > 50 µM (inactive) | > 50 µM (inactive) | > 50 µM (inactive) | > 50 µM (inactive) | – | > 50 µM (inactive) | > 50 µM (inactive) | > 50 µM (inactive) | –
10 | Cc1cccc(C(C)(C)C)c1NC(=O)CCl | > 100 µM (inactive) | > 100 µM (inactive) | > 100 µM (inactive) | > 100 µM (inactive) | > 100 µM (inactive) | > 100 µM (inactive) | > 100 µM (inactive) | > 100 µM (inactive) | > 100 µM (inactive) | > 100 µM (inactive) | > 100 µM (inactive) | > 100 µM (inactive) | > 100 µM (inactive) | > 100 µM (inactive) | –
11 | CCOC(=O)Cc1c(Cc2[nH]c(C(=O)OCc3ccccc3)c(CC(=O)OCC)c2CC(=O)OCC)[nH]c(C(=O)OCc2ccccc2)c1CC(=O)OCC | > 100 µM (inactive) | > 100 µM (inactive) | – | > 100 µM (inactive) | > 100 µM (inactive) | > 100 µM (inactive) | > 100 µM (inactive) | > 100 µM (inactive) | 67.8 µM (inactive) | > 100 µM (inactive) | > 100 µM (inactive) | > 100 µM (inactive) | – | > 100 µM (inactive) | > 100 µM (inactive)
12 | C/C(=N\NC(=S)N1CCC(C2CCN(C(=S)N/N=C(\C)c3ccccn3)CC2)CC1)c1ccccn1 | 71.3 µM (inactive) | > 100 µM (inactive) | – | 74.1 µM (inactive) | 55 µM (inactive) | 51.3 µM (inactive) | > 100 µM (inactive) | > 100 µM (inactive) | > 100 µM (inactive) | – | > 100 µM (inactive) | 34.1 µM (inactive) | > 100 µM (inactive) | 53.7 µM (inactive) | 37.8 µM (inactive)
13 | CSC(=S)N(C)NC(=O)c1cccc(C(=O)NN(C)C(=S)SC)n1 | 3.44 µM (inactive) | 15.4 µM (inactive) | – | 26.4 µM (inactive) | 14.8 µM (inactive) | 24.5 µM (inactive) | 28.2 µM (inactive) | 15.6 µM (inactive) | – | 4.33 µM (inactive) | 3.06 µM (inactive) | 18.6 µM (inactive) | 6.11 µM (inactive) | > 100 µM (inactive) | 21.5 µM (inactive)
14 | S=C1NCCN1 | > 100 µM (inactive) | > 100 µM (inactive) | > 100 µM (inactive) | > 100 µM (inactive) | > 100 µM (inactive) | > 100 µM (inactive) | – | > 100 µM (inactive) | > 100 µM (inactive) | > 100 µM (inactive) | > 100 µM (inactive) | > 100 µM (inactive) | – | > 100 µM (inactive) | > 100 µM (inactive)
15 | COc1ccc(C(=O)C(c2ccc(OC)cc2)C2(O)C(=O)Nc3ccccc32)cc1 (stereo unspecified) | > 100 µM (inactive) | > 100 µM (inactive) | > 100 µM (inactive) | > 100 µM (inactive) | > 100 µM (inactive) | > 100 µM (inactive) | – | > 100 µM (inactive) | > 100 µM (inactive) | > 100 µM (inactive) | 94.6 µM (inactive) | > 100 µM (inactive) | – | > 100 µM (inactive) | > 100 µM (inactive)
16 | COC(=O)C1=C(C)N(NC(=O)c2ccccc2)C(C)(O)C12CCOC2=O (stereo unspecified) | > 100 µM (inactive) | > 100 µM (inactive) | 0.608 µM (active) | > 100 µM (inactive) | > 100 µM (inactive) | > 100 µM (inactive) | > 100 µM (inactive) | > 100 µM (inactive) | > 100 µM (inactive) | > 100 µM (inactive) | > 100 µM (inactive) | > 100 µM (inactive) | > 100 µM (inactive) | > 100 µM (inactive) | –
17 | NC(=O)NCc1c(C(N)=O)ncn1Cc1ccccc1 | > 100 µM (inactive) | > 100 µM (inactive) | – | > 100 µM (inactive) | > 100 µM (inactive) | > 100 µM (inactive) | > 100 µM (inactive) | > 100 µM (inactive) | – | > 100 µM (inactive) | > 100 µM (inactive) | > 100 µM (inactive) | > 100 µM (inactive) | > 100 µM (inactive) | > 100 µM (inactive)
18 | CN(C)CCS/C(=N\c1ccccc1)N1CCCCC1 | 83 µM (inactive) | 14.8 µM (inactive) | 16.5 µM (inactive) | 86.9 µM (inactive) | 91.8 µM (inactive) | 20.2 µM (inactive) | – | 28.4 µM (inactive) | 20.3 µM (inactive) | 19 µM (inactive) | 17.9 µM (inactive) | 41.8 µM (inactive) | 17.5 µM (inactive) | 16.5 µM (inactive) | 13.7 µM (inactive)
19 | Cn1c(=O)c(C(c2ccccc2)c2c(O)c3ccccc3n(C)c2=O)c(O)c2ccccc21 | > 100 µM (inactive) | > 100 µM (inactive) | > 100 µM (inactive) | > 100 µM (inactive) | > 100 µM (inactive) | > 100 µM (inactive) | – | > 100 µM (inactive) | > 100 µM (inactive) | 45.3 µM (inactive) | > 100 µM (inactive) | > 100 µM (inactive) | > 100 µM (inactive) | > 100 µM (inactive) | > 100 µM (inactive)
20 | CC(C)CCCC(C)[C@H]1CCC2[C@H]3C(CC[C@@]21C)[C@@]1(C)CCC=C[C@]12C[C@@H]2[C@@H]3O (stereo partly specified) | > 100 µM (inactive) | > 100 µM (inactive) | – | > 100 µM (inactive) | > 100 µM (inactive) | > 100 µM (inactive) | > 100 µM (inactive) | – | > 100 µM (inactive) | > 100 µM (inactive) | > 100 µM (inactive) | > 100 µM (inactive) | > 100 µM (inactive) | > 100 µM (inactive) | > 100 µM (inactive)
